From patent US9560989B2, “Method for determining the metabolic capacity of at least one enzyme” (HUMEDICS GMBH, priority 2011, dated 2017) come the findings set out here.

Data set [1] concerns the target T1, CYP450 1A2 (Homo sapiens, UniProt P05177).
T1 sequence (P05177 1-516): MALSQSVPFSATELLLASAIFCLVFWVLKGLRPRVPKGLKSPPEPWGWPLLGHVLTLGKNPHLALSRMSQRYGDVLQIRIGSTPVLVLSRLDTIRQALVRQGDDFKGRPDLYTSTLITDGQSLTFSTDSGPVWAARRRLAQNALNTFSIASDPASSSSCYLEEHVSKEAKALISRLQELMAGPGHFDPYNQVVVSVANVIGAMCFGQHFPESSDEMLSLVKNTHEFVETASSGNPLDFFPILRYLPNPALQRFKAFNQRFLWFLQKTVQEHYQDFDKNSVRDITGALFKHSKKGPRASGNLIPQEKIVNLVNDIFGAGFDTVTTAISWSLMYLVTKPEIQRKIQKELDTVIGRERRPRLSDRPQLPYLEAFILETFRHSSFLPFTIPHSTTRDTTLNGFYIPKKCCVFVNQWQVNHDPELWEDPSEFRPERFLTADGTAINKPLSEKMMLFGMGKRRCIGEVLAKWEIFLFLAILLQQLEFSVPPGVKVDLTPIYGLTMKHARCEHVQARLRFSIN
As to conditions: in vivo.
Procedure: As substrate, ^13C-labeled methacetin at a dose of 2 mg per kilogram bodyweight of the individual was administered to the individual, wherein the release period was shorter than 60 seconds. In the body of the individual the ^13C-labeled methacetin was metabolized in the liver to paracetamol and ^13C-labeled CO2. The latter was detected as product in the air exhaled by the individual.
1 DOB here refers to a change of the ^13CO2-to-^12CO2-ratio by a thousandth above the natural ratio. The obtained measured values, illustrated in FIG. 1, are subsequently fitted with a suitable model function. […] From this model function—with a function equation familiar as such—different parameters can now be derived which specify the function. […]
As methacetin is almost solely metabolized in the liver, with the specified metabolism dynamics it is possible to directly and immediately trace the metabolism of the administered substrate by the enzymes existing in the liver. […] Here, for instance the value of the maximum product concentration in the exhaled air Pmax allows a statement to be made about the number of the healthy liver cells and the liver volume which is thus available for metabolism; whereas the rise in the form of the time constant(s) of the model function, fitted to the measured values, allows statements to be made about the entrance velocity of the substrate into the liver cells. […]

Data set [2] deals with T1, CYP450 1A2. Nature of the data set: metabolic power of the liver determined by methacetin metabolism at different dosages. The format is in vivo. Set-up: metabolized to ^13CO2 and paracetamol in the liver cells by the enzyme CYP450 1A2; from tissue; host or cells: liver of the living individual (in vivo). As to conditions: FIG. 2. As to the method: The metabolic power was determined according to the formulae indicated above for different methacetin metabolisms observed after methacetin administration in different dosages. Specifically, 1 mg ^13C-labeled methacetin per kg bodyweight, 2 mg/kg, 4 mg/kg and 8 mg/kg were administered.
This non-linearity is expressed by the function L(n/M), wherein n denotes the number of substrate molecules, i.e. methacetin molecules, and M denotes the bodyweight in kg. This function L(n/M) forms part of the fitting curve represented in FIG. 2 by the interpolation curve between the single measurement points.

With `COc1ccc(NC(C)=O)cc1` [13C-labeled methacetin], the “time point of half-maximum methacetine metabolism (t1/2)” value at CYP450 1A2 [1] was ~1.5 min. The “time point of maximum methacetine metabolism (tmax)” value at CYP450 1A2 [1] is ~6.5 min. Also, the “dependence of the measured signals on dosage” value at CYP450 1A2 [2] (1 mg per kg body weight) and on CYP450 1A2 [2] (2 mg/kg) was “linear dependence” throughout. Besides, the “deviation from the linear behaviour” value on CYP450 1A2 [2] (4 mg/kg) is 10%; at CYP450 1A2 [2] (8 mg/kg) it was “more than 20%”.
